Reference: PMC8330742, “New benzothieno[2,3-c]pyridines as non-steroidal CYP17 inhibitors: design, synthesis, anticancer screening, apoptosis induction, and in silico ADME profile studies” (Journal of Enzyme Inhibition and Medicinal Chemistry, 2021)

Key:
COLO 205 = assay: NCI-60 SRB screen; assay type: cell-based, human; conditions: Homo sapiens; COLO 205; single dose 10^−5 M; read-out: Growth inhibition (%)
MDA-MB-435 = assay: NCI-60 SRB screen; assay type: cell-based; conditions: Homo sapiens, MDA-MB-435, read-out: Growth inhibition (%)
NCI-H322M = assay: NCI-60 SRB screen; assay type: cell-based, human; conditions: Homo sapiens, single dose 10^−5 M, read-out: Growth inhibition (%)
SF-268 = assay: NCI-60 SRB screen; assay type: cell-based, human; conditions: Homo sapiens; SF-268; single dose 10^−5 M; read-out: Growth inhibition (%)
UACC-257 = assay: NCI-60 SRB screen; assay type: cell-based, human; conditions: Homo sapiens, UACC-257; UACC-275 (so in the source); single dose 10^−5 M; read-out: Growth inhibition (%)
MOLT-4 = assay: NCI-60 SRB screen; assay type: cell-based; conditions: Homo sapiens; MOLT-4; single dose 10^−5 M; read-out: Growth inhibition (%)
A549/ATCC = assay: NCI-60 SRB screen; assay type: cell-based, human; conditions: Homo sapiens, single dose 10^−5 M, read-out: Growth inhibition (%)
OVCAR-4 = assay: NCI-60 SRB screen; assay type: cell-based, human; conditions: Homo sapiens; OVCAR-4; single dose 10^−5 M; read-out: Growth inhibition (%)
NCI-H460 = assay: NCI-60 SRB screen; assay type: cell-based, human; conditions: Homo sapiens; NCI-H460; single dose 10^−5 M; read-out: Growth inhibition (%)
SF-295 = assay: NCI-60 SRB screen; assay type: cell-based, human; conditions: Homo sapiens; SF-295; single dose 10^−5 M; read-out: Growth inhibition (%)
KM12 = assay: NCI-60 SRB screen; assay type: cell-based, human; conditions: Homo sapiens; KM12; single dose 10^−5 M; read-out: Growth inhibition (%)
EKVX = assay: NCI-60 SRB screen; assay type: cell-based, human; conditions: Homo sapiens, single dose 10^−5 M, read-out: Growth inhibition (%)
NCI-H522 = assay: NCI-60 SRB screen; assay type: cell-based, human; conditions: Homo sapiens; NCI-H522; single dose 10^−5 M; read-out: Growth inhibition (%)
NCI-H23 = assay: NCI-60 SRB screen; assay type: cell-based, human; conditions: Homo sapiens; NCI-H23; single dose 10^−5 M; read-out: Growth inhibition (%)
HL-60(TB) = assay: NCI-60 SRB screen; assay type: cell-based, human; conditions: Homo sapiens; HL-60 (TB); single dose 10^−5 M; read-out: Growth inhibition (%)
SR = assay: NCI-60 SRB screen; assay type: cell-based; conditions: Homo sapiens, single dose 10^−5 M, read-out: Growth inhibition (%)
[1] = system: panel of 60 cancer cell lines; assay: NCI-60 SRB screen, mean or range over the panel; assay type: cell-based, human; conditions: Homo sapiens; mean over the cell lines; single dose 10^−5 M; read-out: Mean growth inhibition (%)
SN12C = assay: NCI-60 SRB screen; assay type: cell-based, human; conditions: Homo sapiens, SN12C; SN 12 C; single dose 10^−5 M; read-out: Growth inhibition (%)
K-562 = assay: NCI-60 SRB screen; assay type: cell-based, human; conditions: Homo sapiens, K562; K-562; single dose 10^−5 M; read-out: Growth inhibition (%)
SW-620 = assay: NCI-60 SRB screen; assay type: cell-based; conditions: Homo sapiens; SW-620; single dose 10^−5 M; read-out: Growth inhibition (%)
UACC-62 = assay: NCI-60 SRB screen; assay type: cell-based, human; conditions: Homo sapiens; UACC-62; single dose 10^−5 M; read-out: Growth inhibition (%)
SK-MEL-5 = assay: NCI-60 SRB screen; assay type: cell-based, human; conditions: Homo sapiens; SK-MEL-5; single dose 10^−5 M; read-out: Growth inhibition (%)
RXF 393 = assay: NCI-60 SRB screen; assay type: cell-based, human; conditions: Homo sapiens; RXF 393; single dose 10^−5 M; read-out: Growth inhibition (%)
HCT-116 = assay: NCI-60 SRB screen; assay type: cell-based, human; conditions: Homo sapiens; HCT-116; single dose 10^−5 M; read-out: Growth inhibition (%)
OVCAR-3 = assay: NCI-60 SRB screen; assay type: cell-based, human; conditions: Homo sapiens; OVCAR-3; single dose 10^−5 M; read-out: Growth inhibition (%)
HOP-62 = assay: NCI-60 SRB screen; assay type: cell-based, human; conditions: Homo sapiens; HOP-62; single dose 10^−5 M; read-out: Growth inhibition (%)
CAKI-1 = assay: NCI-60 SRB screen; assay type: cell-based, human; conditions: Homo sapiens; CAKI-1; single dose 10^−5 M; read-out: Growth inhibition (%)
MALME-3M = assay: NCI-60 SRB screen; assay type: cell-based, human; conditions: Homo sapiens, single dose 10^−5 M, read-out: Growth inhibition (%)
UO-31 = assay: NCI-60 SRB screen; assay type: cell-based, human; conditions: Homo sapiens; UO-31; single dose 10^−5 M; read-out: Growth inhibition (%)
TK-10 = assay: NCI-60 SRB screen; assay type: cell-based, human; conditions: Homo sapiens; TK-10; single dose 10^−5 M; read-out: Growth inhibition (%)
NCI-H226 = assay: NCI-60 SRB screen; assay type: cell-based, human; conditions: Homo sapiens; NCI-H226; single dose 10^−5 M; read-out: Growth inhibition (%)
M14 = assay: NCI-60 SRB screen; assay type: cell-based, human; conditions: Homo sapiens; M14; single dose 10^−5 M; read-out: Growth inhibition (%)
786-0 = assay: NCI-60 SRB screen; assay type: cell-based; conditions: Homo sapiens; 786-0; single dose 10^−5 M; read-out: Growth inhibition (%)
IGROV1 = assay: NCI-60 SRB screen; assay type: cell-based, human; conditions: Homo sapiens, IGROV-1; IGROV1; single dose 10^−5 M; read-out: Growth inhibition (%)
SK-MEL-2 = assay: NCI-60 SRB screen; assay type: cell-based, human; conditions: Homo sapiens; SK-MEL-2; single dose 10^−5 M; read-out: Growth inhibition (%)
LOX IMVI = assay: NCI-60 SRB screen; assay type: cell-based, human; conditions: Homo sapiens, single dose 10^−5 M, read-out: Growth inhibition (%)
OVCAR-8 = assay: NCI-60 SRB screen; assay type: cell-based, human; conditions: Homo sapiens; OVCAR-8; single dose 10^−5 M; read-out: Growth inhibition (%)
HT-29 = assay: NCI-60 SRB screen; assay type: cell-based; conditions: Homo sapiens; HT-29; single dose 10^−5 M; read-out: Growth inhibition (%)
CCRF-CEM = assay: NCI-60 SRB screen; assay type: cell-based; conditions: Homo sapiens, single dose 10^−5 M, read-out: Growth inhibition (%)
ACHN = assay: NCI-60 SRB screen; assay type: cell-based; conditions: Homo sapiens, single dose 10^−5 M, read-out: Growth inhibition (%)
HCT-15 = assay: NCI-60 SRB screen; assay type: cell-based, human; conditions: Homo sapiens; HCT-15; single dose 10^−5 M; read-out: Growth inhibition (%)
HOP-92 = assay: NCI-60 SRB screen; assay type: cell-based, human; conditions: Homo sapiens; HOP-92; single dose 10^−5 M; read-out: Growth inhibition (%)
HCC-2998 = assay: NCI-60 SRB screen; assay type: cell-based, human; conditions: Homo sapiens; HCC-2998; single dose 10^−5 M; read-out: Growth inhibition (%)
NCI/ADR-RES = assay: NCI-60 SRB screen; assay type: cell-based, human; conditions: Homo sapiens, single dose 10^−5 M, read-out: Growth inhibition (%)
SK-MEL-28 = assay: NCI-60 SRB screen; assay type: cell-based; conditions: Homo sapiens; SK-MEL-28; single dose 10^−5 M; read-out: Growth inhibition (%)

`O=[N+]([O-])c1cccc(C2NC(Cl)=C(Cl)c3c2sc2c(F)cccc32)c1` (stereo not drawn) [Compound 7a, 3,4-Dichloro-8-fluoro-1-(3-nitrophenyl)-1,2-dihydro[1]benzothieno[2,3-c] pyridine] was tested. Which inhibition at 10 µM (COLO 205) did it give?
Its inhibition at 10 µM is -14.6%.

What about the inhibition at 10 µM (MDA-MB-435) of the same compound?
The inhibition at 10 µM was -9.15%.

What about the inhibition at 10 µM (NCI-H322M) of the same compound?
Its inhibition at 10 µM is -2.48%.

What about the inhibition at 10 µM (SF-268) of the same compound?
The inhibition at 10 µM was 5.16%.

And the inhibition at 10 µM (UACC-257)?
Its inhibition at 10 µM is -7.18%.

And the inhibition at 10 µM (MOLT-4)?
Its inhibition at 10 µM is 15.2%.

And the inhibition at 10 µM (A549/ATCC)?
The inhibition at 10 µM was 2.3%.

And the inhibition at 10 µM (OVCAR-4)?
Its inhibition at 10 µM is 3.16%.

And the inhibition at 10 µM (NCI-H460)?
The inhibition at 10 µM was 1.24%.

What about the inhibition at 10 µM (SF-295) of the same compound?
The inhibition at 10 µM was -2.06%.

What about the inhibition at 10 µM (KM12) of the same compound?
The inhibition at 10 µM was 3.25%.

What about the inhibition at 10 µM (EKVX) of the same compound?
Its inhibition at 10 µM is 7.1%.

What about the inhibition at 10 µM (NCI-H522) of the same compound?
Its inhibition at 10 µM is 12.7%.

What about the inhibition at 10 µM (NCI-H23) of the same compound?
The inhibition at 10 µM was 8.55%.

What about the inhibition at 10 µM (HL-60(TB)) of the same compound?
Its inhibition at 10 µM is -8.33%.

And the inhibition at 10 µM (SR)?
Its inhibition at 10 µM is 16.2%.

And the inhibition at 10 µM [1]?
The inhibition at 10 µM was 3.15%.

What about the inhibition at 10 µM (SN12C) of the same compound?
The inhibition at 10 µM was 2.54%.

What about the inhibition at 10 µM (K-562) of the same compound?
Its inhibition at 10 µM is 18%.

What about the inhibition at 10 µM (SW-620) of the same compound?
The inhibition at 10 µM was 4.18%.

What about the inhibition at 10 µM (UACC-62) of the same compound?
The inhibition at 10 µM was 7.18%.

What about the inhibition at 10 µM (SK-MEL-5) of the same compound?
The inhibition at 10 µM was 1.94%.

What about the inhibition at 10 µM (RXF 393) of the same compound?
Its inhibition at 10 µM is 7.81%.

And the inhibition at 10 µM (HCT-116)?
The inhibition at 10 µM was 13.4%.

And the inhibition at 10 µM (OVCAR-3)?
The inhibition at 10 µM was -3.96%.

What about the inhibition at 10 µM (HOP-62) of the same compound?
The inhibition at 10 µM was 15.5%.

And the inhibition at 10 µM (CAKI-1)?
The inhibition at 10 µM was 18.8%.

And the inhibition at 10 µM (MALME-3M)?
Its inhibition at 10 µM is -2.96%.

And the inhibition at 10 µM (UO-31)?
The inhibition at 10 µM was 30.2%.

And the inhibition at 10 µM (TK-10)?
The inhibition at 10 µM was -37.2%.

And the inhibition at 10 µM (NCI-H226)?
Its inhibition at 10 µM is 14.2%.

What about the inhibition at 10 µM (M14) of the same compound?
Its inhibition at 10 µM is 4.95%.

And the inhibition at 10 µM (786-0)?
The inhibition at 10 µM was -7.16%.

And the inhibition at 10 µM (IGROV1)?
Its inhibition at 10 µM is 10.7%.

And the inhibition at 10 µM (SK-MEL-2)?
The inhibition at 10 µM was -5.95%.

What about the inhibition at 10 µM (LOX IMVI) of the same compound?
The inhibition at 10 µM was 1.24%.

And the inhibition at 10 µM (OVCAR-8)?
Its inhibition at 10 µM is 1.9%.

And the inhibition at 10 µM (HT-29)?
The inhibition at 10 µM was -1.97%.

And the inhibition at 10 µM (CCRF-CEM)?
Its inhibition at 10 µM is 2.12%.

And the inhibition at 10 µM (ACHN)?
The inhibition at 10 µM was 6.96%.

What about the inhibition at 10 µM (HCT-15) of the same compound?
Its inhibition at 10 µM is -1.63%.

What about the inhibition at 10 µM (HOP-92) of the same compound?
Its inhibition at 10 µM is 14.7%.

And the inhibition at 10 µM (HCC-2998)?
Its inhibition at 10 µM is -16.1%.

And the inhibition at 10 µM (NCI/ADR-RES)?
Its inhibition at 10 µM is -2.76%.

What about the inhibition at 10 µM (SK-MEL-28) of the same compound?
The inhibition at 10 µM was -11.4%.
